{
  "source": "paper PMC9503459",
  "about": "“Antifungal Activity, Structural Stability, and Immunomodulatory Effects on Human Immune Cells of Defensin from the Lentil Lens culinaris” (Membranes, 2022)",
  "system": "polarized Caco-2 monolayer",
  "assay": "Cytokine response by multiplex xMAP, Caco-2",
  "assay_type": "cell-based, human",
  "details": "2 µM, 24 h",
  "procedure": "Colorectal adenocarcinoma Caco-2 cell line (ATCC HTB-37) was cultured in complete DMEM/F12 (1:1) medium containing 10% fetal bovine serum (FBS, Gibco) and 1X antibiotic-antimycotic solution (1XAAS, Invitrogen, Waltham, MA, USA). The acute monocytic leukemia THP-1 line (ATCC TIB-202) was cultured in complete RPMI-1640 medium, containing 10% FBS, 1XAAS, and […]. THP-1 cells were differentiated into pro-inflammatory macrophages (Mφ1) with phorbol 12-myristate 13-acetate (Sigma-Aldrich) for 24 h and subsequently polarized with lipopolysaccharide from E. coli (Sigma-Aldrich) and rhIFN-γ (Sigma-Aldrich) for another 48 h according to previously reported protocol. All cells were cultured in a humidified CO2 incubator (5% CO2, 37 °C). Primary peripheral blood mononuclear cells (PBMCs) collected from a healthy donor were purchased from American Type Culture Collection (ATCC PCS-800-011). CD4^+ T-helper and CD8^+ T cytotoxic cells were isolated from PBMCs by magnetic separation with mouse anti-human CD4-PE (clone 13B8.2, Beckman Coulter Diagnostics, Pasadena, CA, USA) and CD8-PE (clone REA734, Miltenyi Biotec, Bergisch Gladbach, Germany), Anti-PE MicroBeads (Miltenyi Biotec), and LS Separation Columns (Miltenyi Biotec). Isolated CD4^+ and CD8^+ cells were expanded separately with Dynabeads™ Human T-Expander CD3/CD28 (Gibco, Waltham, MA, USA) in RPMI-1640 supplemented with 10% FBS, 1XAAS and 100 U/mL rh-IL-2 (Gibco). Regulatory CD4^+ FoxP3^+ T cells (Tregs) were isolated from PBMCs by magnetic separation with CD4^+CD25^+ Regulatory T Cell Isolation Kit, human (Miltenyi Biotec). Primary CD14^+ blood monocytes were isolated from PBMCs by adherence according to standard technique. Monocyte-derived mature dendritic cells (moDCs) were obtained from CD14^+ blood monocytes according to the previously reported protocol. Briefly, blood monocytes were incubated in complete RPMI-1640 medium, containing 10% FBS, 1XAAS, 800 U/mL rhGM-CSF (Sci-Store, Russia, Moscow) and 500 U/mL rhIL-4 (Sci-Store) for 3 days. Fresh complete RPMI-1640 medium with rhGM-CSF and rhIL-4 was added to the culture on day 3. On day 5, fresh complete RPMI-1640 containing 100 U/mL rhTNF-α (Sigma) as well as 800 U/mL rhGM-CSF and 500 U/mL rhIL-4 was added and the culture was incubated for another 4 days until full maturation.\nCaco-2 cells were seeded into the wells of a 48-well plate, coated with 0.1% bovine collagen (Sigma-Aldrich) for 24 h, 3 weeks before the experiment with complete DMEM/F12 (1:1) medium renewal every 2–3 days. Monocytes, moDCs, CD4^+ T-helper and CD8^+ T cytotoxic cells, Mφ1, and Regulatory CD4^+ FoxP3^+ T cells were seeded into the wells of 48-well plates in the complete RPMI-1640 medium supplemented with 10% Human AB serum (HABS, Capricorn Scientific, Ebsdorfergrund, Germany) and 1XAAS 24 h prior to the experiment; medium in Caco-2-containing wells was also replaced with the same medium. After 24 h, half of the medium in each well was replaced by fresh complete RPMI-1640 medium with 10% HABS, supplemented with 4 µM of Lc-def for the sample wells or fresh medium alone for the control wells. Cell cultures were kept in CO2-incubator (5% CO2, 37 °C) for another 24 h. Culture supernatants were collected 24 h later and stored at −70 °C degrees less than one month prior to the analytes assessment. […]",
  "note": "No end group written: not given here.",
  "data": [
    {"substance": "Lc-def: defensin from lentil Lens culinaris seeds (UniProt:B3F051), recombinant, overexpressed in Escherichia coli (KTCENLSDSFKGPCIPDGNCNKHCKEKEHLLSGRCRDDFRCWCTRNC; disulfide (positions not given here); ends not checked; also: disulfide bonds present, pairing not given here; UniProt B3F051 28-74, looked up)", "values": [
      {"measurement": "EGF", "setting": "Caco-2 monolayer", "result": "<1.95↓ pg/ml"},
      {"measurement": "Eotaxin", "setting": "Caco-2 monolayer", "result": "<3.23↓ pg/ml"},
      {"measurement": "FGF-2", "setting": "Caco-2 monolayer", "result": 19.54, "unit": "pg/mL"},
      {"measurement": "FLT-3L", "setting": "Caco-2 monolayer", "result": "<0.45↓ pg/ml"},
      {"measurement": "Fractalkine", "setting": "Caco-2 monolayer", "result": "<23.19↓ pg/ml"},
      {"measurement": "G-CSF", "setting": "Caco-2 monolayer", "result": "<2.57↓ pg/ml"},
      {"measurement": "GM-CSF", "setting": "Caco-2 monolayer", "result": "<1.36↓ pg/ml"},
      {"measurement": "GROa", "setting": "Caco-2 monolayer", "result": 21.87, "unit": "pg/mL"},
      {"measurement": "IFNa2", "setting": "Caco-2 monolayer", "result": "<4.43↓ pg/ml"},
      {"measurement": "IFNg", "setting": "Caco-2 monolayer", "result": "<1.99↓ pg/ml"},
      {"measurement": "IL-1RA", "setting": "Caco-2 monolayer", "result": "<0.83↓ pg/ml"},
      {"measurement": "IL-1a", "setting": "Caco-2 monolayer", "result": "<3.64↓ pg/ml"},
      {"measurement": "IL-1b", "setting": "Caco-2 monolayer", "result": "<18.72↓ pg/ml"},
      {"measurement": "IL-2", "setting": "Caco-2 monolayer", "result": "<0.31↓ pg/ml"},
      {"measurement": "IL-3", "setting": "Caco-2 monolayer", "result": "<0.48↓ pg/ml"},
      {"measurement": "IL-4", "setting": "Caco-2 monolayer", "result": 11.31, "unit": "pg/mL"},
      {"measurement": "IL-5", "setting": "Caco-2 monolayer", "result": "<0.24↓ pg/ml"},
      {"measurement": "IL-6", "setting": "Caco-2 monolayer", "result": 1.45, "unit": "pg/mL"},
      {"measurement": "IL-7", "setting": "Caco-2 monolayer", "result": "<0.33↓ pg/ml"},
      {"measurement": "IL-8", "setting": "Caco-2 monolayer", "result": 7.94, "unit": "pg/mL"},
      {"measurement": "IL-9", "setting": "Caco-2 monolayer", "result": 11.08, "unit": "pg/mL"},
      {"measurement": "IL-10", "setting": "Caco-2 monolayer", "result": "<0.68↓ pg/ml"},
      {"measurement": "IL-12 (p40)", "setting": "Caco-2 monolayer", "result": "<3.02↓ pg/ml"},
      {"measurement": "IL-12 (p70)", "setting": "Caco-2 monolayer", "result": "<1.48↓ pg/ml"},
      {"measurement": "IL-13", "setting": "Caco-2 monolayer", "result": 42.42, "unit": "pg/mL"},
      {"measurement": "IL-15", "setting": "Caco-2 monolayer", "result": "<1.45↓ pg/ml"},
      {"measurement": "IL-17A", "setting": "Caco-2 monolayer", "result": "<1.55↓ pg/ml"},
      {"measurement": "IL-17E/IL-25", "setting": "Caco-2 monolayer", "result": "<20.59↓ pg/ml"},
      {"measurement": "IL-17F", "setting": "Caco-2 monolayer", "result": "<16.96↓ pg/ml"},
      {"measurement": "IL-18", "setting": "Caco-2 monolayer", "result": "<0.35↓ pg/ml"},
      {"measurement": "IL-22", "setting": "Caco-2 monolayer", "result": 51.96, "unit": "pg/mL"},
      {"measurement": "IL-27", "setting": "Caco-2 monolayer", "result": "<8.55↓ pg/ml"},
      {"measurement": "IP-10", "setting": "Caco-2 monolayer", "result": 29.22, "unit": "pg/mL"},
      {"measurement": "M-GSF", "setting": "Caco-2 monolayer", "result": "<23.75↓ pg/ml"},
      {"measurement": "MCP-1", "setting": "Caco-2 monolayer", "result": "<1.52↓ pg/ml"},
      {"measurement": "MCP-3", "setting": "Caco-2 monolayer", "result": 12.67, "unit": "pg/mL"},
      {"measurement": "MDC", "setting": "Caco-2 monolayer", "result": "<0.35↓ pg/ml"},
      {"measurement": "MIG", "setting": "Caco-2 monolayer", "result": "<3.43↓ pg/ml"},
      {"measurement": "MIP-1a", "setting": "Caco-2 monolayer", "result": "<1.76↓ pg/ml"},
      {"measurement": "MIP-1b", "setting": "Caco-2 monolayer", "result": "<1.92↓ pg/ml"},
      {"measurement": "PDGF-AA", "setting": "Caco-2 monolayer", "result": 541.87, "unit": "pg/mL"},
      {"measurement": "PDGF-AB/BB", "setting": "Caco-2 monolayer", "result": 188.6, "unit": "pg/mL"},
      {"measurement": "RANTES", "setting": "Caco-2 monolayer", "result": "<0.67↓ pg/ml"},
      {"measurement": "TGF-a", "setting": "Caco-2 monolayer", "result": "<0.66↓ pg/ml"},
      {"measurement": "TNFa", "setting": "Caco-2 monolayer", "result": "<3.91↓ pg/ml"},
      {"measurement": "TNFb", "setting": "Caco-2 monolayer", "result": 21.23, "unit": "pg/mL"},
      {"measurement": "VEGFa", "setting": "Caco-2 monolayer", "result": 2653, "unit": "pg/mL"},
      {"measurement": "sCD40L", "setting": "Caco-2 monolayer", "result": "<6.66↓ pg/ml"},
      {"measurement": "effect on cytokine production", "setting": "polarized Caco-2 monolayer", "result": "no effect"}
    ]}
  ]
}
